Experimental data: patent publication US7741346B2, “Angiogenesis inhibitor” (Santen Pharmaceutical Co., Ltd., priority 2001, dated 2010)

Structure (SMILES)	melting point
CCCCCN(CCC12CC3CC(CC(C3)C1)C2)C(=O)NCc1cccnc1 [Compound No. 1-73, 1-[2-(1-Adamantyl)ethyl]-1-pentyl-3-(3-pyridyl)methylurea]	88.5 to 101.5 °C
Cl.O=C1CCN(CCCc2ccncc2)C(=O)N1CCC12CC3CC(CC(C3)C1)C2	170 °C
CCCCCN(CCC12CC3CC(CC(C3)C1)C2)C(=O)NCc1ccncc1 [Compound No. 1-74, 1-[2-(1-Adamantyl)ethyl]-1-pentyl-3-(4-pyridyl)methylurea]	96.5 to 108 °C
CCCN(CCC12CC3CC(CC(C3)C1)C2)C(=O)NCCCc1ccncc1 [Compound No. 1-16, 1-[2-(1-Adamantyl)ethyl]-1-propyl-3-[3-(4-pyridyl)propyl]urea]	99 to 103 °C
CCCCCN(CCC12CC3CC(CC(C3)C1)C2)C(=O)NCCNc1ccncc1 [Compound No. 1-126, 1-[2-(1-Adamantyl)ethyl]-1-pentyl-3-[2-(4-pyridylamino)ethyl]urea]	133.9 to 134.5 °C
CN(C)CCN(CCC12CC3CC(CC(C3)C1)C2)C(=O)NCCCc1ccncc1 [Compound No. 1-15, 1-[2-(1-Adamantyl)ethyl]-1-[2-(dimethylamino)ethyl]-3-[3-(4-pyridyl)propyl]urea]	104 to 106.5 °C
CC(CNC(=O)N(CCC(F)(F)F)CCC12CC3CC(CC(C3)C1)C2)Cc1ccncc1 (stereo not shown) [Compound No. 1-117, 1-[2-(1-Adamantyl)ethyl]-3-[2-methyl-3-(4-pyridyl)propyl]-1-(3,3,3-trifluoropropyl)urea]	81.1 to 84.1 °C
CCCCCN(CCC12CC3CC(CC(C3)C1)C2)C(=O)NCCC(=O)c1ccncc1 [Compound No. 31-1, 1-[2-(1-Adamantyl)ethyl]-3-[3-oxo-3-(4-pyridyl)propyl]-1-pentylurea]	103.5 to 104 °C
CN(CCN(CCC12CC3CC(CC(C3)C1)C2)C(=O)NCCCc1ccncc1)S(C)(=O)=O [Compound No. 10-4, 1-[2-(1-Adamantyl)ethyl]-1-[2-[N-methyl-N-(methylsulfonyl)amino]ethyl]-3-[3-(4-pyridyl)propyl]urea]	164.9 to 167.2 °C
CCCN(CCCC12CC3CC(CC(C3)C1)C2)C(=O)NCc1ccncc1 [Compound No. 1-128, 1-[3-(1-Adamantyl)propyl]-1-propyl-3-(4-pyridyl)methylurea]	96 to 98 °C
CCCCCN(CCC12CC3CC(CC(C3)C1)C2)C(=O)NCCCc1ccnc2ccccc12 [Compound No. 1-91, 1-[2-(1-Adamantyl)ethyl]-1-pentyl-3-[3-(4-quinolyl)propyl]urea]	80.2 to 102 °C
CCCCCN(CCC12CC3CC(CC(C3)C1)C2)C(=O)NCC(Cc1ccncc1)Cc1ccncc1 [Compound No. 1-110, 1-[2-(1-Adamantyl)ethyl]-3-[2,2-bis(4-pyridylmethyl)ethyl]-1-pentylurea]	124 to 136 °C
O=C(NCCCc1ccncc1)N(CCC12CC3CC(CC(C3)C1)C2)CC1CCCC1 [Compound No. 1-21, 1-[2-(1-Adamantyl)ethyl]-1-cyclopentylmethyl-3-[3-(4-pyridyl)propyl]urea]	155 to 158 °C
O=C(NCCCc1ccncc1)N(CCC12CC3CC(CC(C3)C1)C2)Cc1cccs1 [Compound No. 1-27, 1-[2-(1-Adamantyl)ethyl]-3-[3-(4-pyridyl)propyl]-1-(2-thienyl)methylurea]	142.5 to 144.5 °C
CC(C)(C)OC(=O)NCCN(CCC12CC3CC(CC(C3)C1)C2)C(=O)NCCCc1cc[n+](Cc2ccccc2)cc1.[Br-]	97 °C
CC(C)N(CCC12CC3CC(CC(C3)C1)C2)C(=O)NCCCc1ccncc1 [Compound No. 1-68, 1-[2-(1-Adamantyl)ethyl]-1-isopropyl-3-[3-(4-pyridyl)propyl]urea]	132 to 134 °C
C=C(C)CN(CCC12CC3CC(CC(C3)C1)C2)C(=O)NCCCc1ccncc1 [Compound No. 1-33, 1-[2-(1-Adamantyl)ethyl]-1-(2-methyl-2-propenyl)-3-[3-(4-pyridyl)propyl]urea]	108 to 109 °C
O=C(NCCCc1ccncc1)N1CCc2ccccc2C1 [Compound No. 1-5, N-[3-(4-Pyridyl)propyl]-1,2,3,4-tetrahydroisoquinoline-2-carboxamide]	76 to 79 °C
C=CCN(CCC12CC3CC(CC(C3)C1)C2)C(=O)NCCCc1ccncc1 [Compound No. 1-23, 1-[2-(1-Adamantyl)ethyl]-1-allyl-3-[3-(4-pyridyl)propyl]urea]	99 to 102 °C
CCCCCN(CCC12CC3CC(CC(C3)C1)C2)C(=O)NCCc1ccccn1 [Compound No. 1-75, 1-[2-(1-Adamantyl)ethyl]-1-pentyl-3-[2-(2-pyridyl)ethyl]urea]	80 to 100 °C
CCCN(CC(=O)NC12CC3CC(CC(C3)C1)C2)C(=O)NCCCc1ccncc1 [Compound No. 1-132, 1-(1-Adamantyl)aminocarbonylmethyl-1-propyl-3-[3-(4-pyridyl)propyl]urea]	132 to 132.5 °C
S=C1N(CCCc2ccncc2)CCN1CCc1ccccc1 [Compound No. 8-1, 1-Phenethyl-3-[3-(4-pyridyl)propyl]-2-imidazolidinethione]	99.5 to 104 °C

Structure (SMILES)	melting point
O=C(NCCCc1ccncc1)N(CCC12CC3CC(CC(C3)C1)C2)CC(F)(F)F [Compound No. 1-114, 1-[2-(1-Adamantyl)ethyl]-3-[3-(4-pyridyl)propyl]-1-(2,2,2-trifluoroethyl)urea]	106.2 to 107.3 °C
O=C(NCCCc1ccncc1)N(CCC12CC3CC(CC(C3)C1)C2)Cc1ccco1 [Compound No. 1-42, 1-[2-(1-Adamantyl)ethyl]-1-furfuryl-3-[3-(4-pyridyl)propyl]urea]	128 to 130 °C
CCCCCN(CCC12CC3CC(CC(C3)C1)C2)C(=O)NCCCc1cc[n+]([O-])cc1 [Compound No. 16-1, 4-[3-[3-[2-(1-Adamantyl)ethyl]-3-pentylureido]propyl]pyridine N-oxide]	97.8 to 127 °C
CCCCCN(CCC12CC3CC(CC(C3)C1)C2)C(=O)NCC(C)(C)Cc1ccncc1 [Compound No. 1-135, 1-[2-(1-Adamantyl)ethyl]-3-[2,2-dimethyl-3-(4-pyridyl)propyl]-1-pentylurea]	82.5 to 84.9 °C
CCCCN(CCC12CC3CC(CC(C3)C1)C2)C(=O)NCCCc1ccncc1 [Compound No. 1-57, 1-[2-(1-Adamantyl)ethyl]-1-butyl-3-[3-(4-pyridyl)propyl]urea]	109.5 to 118 °C
CN(CCN(CCC12CC3CC(CC(C3)C1)C2)C(=O)NCCCc1ccncc1)C(=O)CC(C)(C)C [Compound No. 10-6, 1-[2-(1-Adamantyl)ethyl]-1-[2-[N-(3,3-dimethylbutyryl)-N-methylamino]ethyl]-3-[3-(4-pyridyl)propyl]urea]	101.4 to 102.4 °C
O=C(NCCCc1ccncc1)N(CCC12CC3CC(CC(C3)C1)C2)C1CCCC1 [Compound No. 1-70, 1-[2-(1-Adamantyl)ethyl]-1-cyclopentyl-3-[3-(4-pyridyl)propyl]urea]	135.5 to 137.5 °C
CCN(CCCC12CC3CC(CC(C3)C1)C2)C(=O)NCCCc1ccncc1 [Compound No. 1-130, 1-[3-(1-Adamantyl)propyl]-1-ethyl-3-[3-(4-pyridyl)propyl]urea]	97.5 to 98.2 °C
CCCCCN(CCC12CC3CC(CC(C3)C1)C2)C(=O)NCCCc1cc[n+](C)cc1.[I-] [Compound No. 4-1, 4-[3-[3-[2-(1-Adamantyl)ethyl]-3-pentylureido]propyl]-1-methylpyridinium iodide]	168 to 171 °C
CN(CCC12CC3CC(CC(C3)C1)C2)C(=O)NCCCc1ccncc1 [Compound No. 1-40, 1-[2-(1-Adamantyl)ethyl]-1-methyl-3-[3-(4-pyridyl)propyl)urea]	99 to 109 °C
CCCCCN(CCC12CC3CC(CC(C3)C1)C2)C(=O)NCCc1cccnc1 [Compound No. 1-76, 1-[2-(1-Adamantyl)ethyl]-1-pentyl-3-[2-(3-pyridyl)ethyl]urea]	112.5 to 114.5 °C
O=C(NCCCc1ccncc1)N(CCCc1ccccc1)C(c1ccccc1)c1ccccc1 [Compound No. 1-93, 1-Diphenylmethyl-1-(3-phenylpropyl)-3-[3-(4-pyridyl)propyl]urea]	123 to 124.8 °C
O=C(NCCCc1ccncc1)N(CCC12CC3CC(CC(C3)C1)C2)CCC12CC3CC(CC(C3)C1)C2 [Compound No. 1-56, 1,1-Bis[2-(1-adamantyl)ethyl]-3-[3-(4-pyridyl)propyl]urea]	80 °C
CC(C)=CCN(CCC12CC3CC(CC(C3)C1)C2)C(=O)NCCCc1ccncc1 [Compound No. 1-31, 1-[2-(1-Adamantyl)ethyl]-1-(3-methyl-2-butenyl)-3-[3-(4-pyridyl)propyl]urea]	93 to 96 °C
CN(CCN(CCC12CC3CC(CC(C3)C1)C2)C(=O)NCCCc1ccncc1)C(=O)OC(C)(C)C(Cl)(Cl)Cl [Compound No. 10-10, 1-[2-(1-Adamantyl)ethyl]-1-[2-[N-(1,1-dimethyl-2,2,2-trichloroethoxycarbonyl)-N-methylamino}ethyl]-3-[3-(4-pyridyl)propyl]urea]	47 to 52 °C
CCCCCN(CCC12CC3CC(CC(C3)C1)C2)C(=O)NCCc1ccc(O)cc1	96.3 to 99.4 °C
O=C(NCCCc1ccncc1)N(O)CCC12CC3CC(CC(C3)C1)C2 [Compound No. 12-1, 1-[2-(1-Adamantyl)ethyl]-1-hydroxy-3-[3-(4-pyridyl)propyl]urea]	101 to 102.59 °C
Cl.Cl.NN(CCC12CC3CC(CC(C3)C1)C2)C(=O)NCCCc1ccncc1	~ 100 °C
CCCCCCN(CCC12CC3CC(CC(C3)C1)C2)C(=O)NCCCc1ccncc1 [Compound No. 1-29, 1-[2-(1-Adamantyl)ethyl]-1-hexyl-3-[3-(4-pyridyl)propyl]urea]	119.5 to 121.5 °C
CCCCCCCCCCN(CCC12CC3CC(CC(C3)C1)C2)C(=O)NCCCc1ccncc1 [Compound No. 1-32, 1-[2-(1-Adamantyl)ethyl]-1-decyl-3-[3-(4-pyridyl)propyl]urea]	75 to 76 °C
O=C(NCCCc1ccncc1)N(CCC12CC3CC(CC(C3)C1)C2)CC1CC1 [Compound No. 1-22, 1-[2-(1-Adamantyl)ethyl]-1-cyclopropylmethyl-3-[3-(4-pyridyl)propyl]urea]	123 to 125 °C
